Patent US20250127805A1, “ALCOHOLIC FORMULATION WITH A MIXTURE OF ALKALOIDS, PRENOL LIPIDS AND FLAVONOIDS” (PONTIFICIA UNIVERSIDAD JAVERIANA, priority 2023, published 2025)

Tested on: cancer cell line type 3 model
Assay: Circulating blasts, tumor development and survival in type 3 model
Format: in vivo
Details: type 3 cancer cell line
Excerpt: FIG. 12. Frequency circulating blasts in cancer cell line type 3 model.

COc1cccc2c1C(=O)c1c(O)c3c(c(O)c1C2=O)C[C@@](O)(C(=O)CO)C[C@@H]3O[C@H]1C[C@H](N)[C@H](O)[C@H](C)O1 [doxorubicin]
tumor development: decrease in tumor development
